PubChem BioAssay (NCI)
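Compound exposure: 48 hours, 5 concentrations, 96-well plates. Definition used: TGI = concentration required for complete inhibition of growth.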

Experiments:
Test in all cases: DTP human tumour cell line panel, 48 h
SNB-78 CNS = system: SNB-78 CNS
786-0 renal = system: 786-0 renal
SNB-19 CNS = system: SNB-19 CNS
CAKI-1 renal = system: CAKI-1 renal
RXF-631 renal = system: RXF-631 renal
SF-295 CNS = system: SF-295 CNS
IGROV1 ovarian = system: IGROV1 ovarian
CCRF-CEM leukemia = system: CCRF-CEM leukemia
DMS 273 small cell lung = system: DMS 273 small cell lung
COLO 205 colon = system: COLO 205 colon
NCI-H23 lung = system: NCI-H23 lung
OVCAR-4 ovarian = system: OVCAR-4 ovarian
DMS 114 small cell lung = system: DMS 114 small cell lung
UACC-257 melanoma = system: UACC-257 melanoma
SK-MEL-5 melanoma = system: SK-MEL-5 melanoma
U251 CNS = system: U251 CNS
KM12 colon = system: KM12 colon
NCI-H226 lung = system: NCI-H226 lung
UACC-62 melanoma = system: UACC-62 melanoma
HT29 colon = system: HT29 colon
SR leukemia = system: SR leukemia
SK-MEL-2 melanoma = system: SK-MEL-2 melanoma
SNB-75 CNS = system: SNB-75 CNS
NCI-H460 lung = system: NCI-H460 lung
OVCAR-3 ovarian = system: OVCAR-3 ovarian
OVCAR-5 ovarian = system: OVCAR-5 ovarian
RPMI-8226 leukemia = system: RPMI-8226 leukemia
HCC-2998 colon = system: HCC-2998 colon
HCT-15 colon = system: HCT-15 colon
HL-60(TB) leukemia = system: HL-60(TB) leukemia
SN12C renal = system: SN12C renal
ACHN renal = system: ACHN renal
UO-31 renal = system: UO-31 renal
DLD-1 colon = system: DLD-1 colon
SK-MEL-28 melanoma = system: SK-MEL-28 melanoma
SF-539 CNS = system: SF-539 CNS
A549 NSCLC = system: A549 NSCLC
M14 melanoma = system: M14 melanoma
EKVX NSCLC = system: EKVX NSCLC
HOP-62 NSCLC = system: HOP-62 NSCLC
A498 renal = system: A498 renal
TK-10 renal = system: TK-10 renal
SW-620 colon = system: SW-620 colon
MALME-3M melanoma = system: MALME-3M melanoma
SF-268 CNS = system: SF-268 CNS
LXFL 529 NSCLC = system: LXFL 529 NSCLC
SK-OV-3 ovarian = system: SK-OV-3 ovarian
MOLT-4 leukemia = system: MOLT-4 leukemia
HOP-18 NSCLC = system: HOP-18 NSCLC
HOP-92 NSCLC = system: HOP-92 NSCLC
RXF 393 renal = system: RXF 393 renal
KM20L2 colon = system: KM20L2 colon
LOX IMVI melanoma = system: LOX IMVI melanoma
NCI-H522 lung = system: NCI-H522 lung
HCT-116 colon = system: HCT-116 colon
K-562 leukemia = system: K-562 leukemia
OVCAR-8 ovarian = system: OVCAR-8 ovarian
XF 498 CNS = system: XF 498 CNS
M19-MEL melanoma = system: M19-MEL melanoma

**Q.** What does the source list for `N#CCc1ccc(C(C#N)/C(CCCC(=O)Nc2cccc([N+](=O)[O-])c2)=N/NC(N)=S)cc1` (centres undefined)?
**A.** TGI (SNB-78 CNS): > 100 µM; TGI (786-0 renal): > 100 µM; TGI (SNB-19 CNS): > 100 µM; TGI (CAKI-1 renal): > 100 µM; TGI (RXF-631 renal): > 100 µM; TGI (SF-295 CNS): > 100 µM; TGI (IGROV1 ovarian): > 100 µM; TGI (CCRF-CEM leukemia): > 100 µM; TGI (DMS 273 small cell lung): > 100 µM; TGI (COLO 205 colon): > 100 µM; TGI (NCI-H23 lung): > 100 µM; TGI (OVCAR-4 ovarian): > 100 µM; TGI (DMS 114 small cell lung): > 100 µM; TGI (UACC-257 melanoma): > 100 µM; TGI (SK-MEL-5 melanoma): > 100 µM; TGI (U251 CNS): > 100 µM; TGI (KM12 colon): > 100 µM; TGI (NCI-H226 lung): > 100 µM; TGI (UACC-62 melanoma): > 100 µM; TGI (HT29 colon): > 100 µM; TGI (SR leukemia): > 100 µM; TGI (SK-MEL-2 melanoma): > 100 µM; TGI (SNB-75 CNS): > 100 µM; TGI (NCI-H460 lung): > 100 µM; TGI (OVCAR-3 ovarian): > 100 µM; TGI (OVCAR-5 ovarian): > 100 µM; TGI (RPMI-8226 leukemia): > 100 µM; TGI (HCC-2998 colon): > 100 µM; TGI (HCT-15 colon): > 100 µM; TGI (HL-60(TB) leukemia): > 100 µM; TGI (SN12C renal): > 100 µM; TGI (ACHN renal): > 100 µM; TGI (UO-31 renal): > 100 µM; TGI (DLD-1 colon): > 100 µM; TGI (SK-MEL-28 melanoma): > 100 µM; TGI (SF-539 CNS): > 100 µM; TGI (A549 NSCLC): > 100 µM; TGI (M14 melanoma): > 100 µM; TGI (EKVX NSCLC): > 100 µM; TGI (HOP-62 NSCLC): > 100 µM; TGI (A498 renal): > 100 µM; TGI (TK-10 renal): > 100 µM; TGI (SW-620 colon): > 100 µM; TGI (MALME-3M melanoma): > 100 µM; TGI (SF-268 CNS): > 100 µM; TGI (LXFL 529 NSCLC): > 100 µM; TGI (SK-OV-3 ovarian): > 100 µM; TGI (MOLT-4 leukemia): > 100 µM; TGI (HOP-18 NSCLC): > 100 µM; TGI (HOP-92 NSCLC): > 100 µM; TGI (RXF 393 renal): > 100 µM; TGI (KM20L2 colon): > 100 µM; TGI (LOX IMVI melanoma): > 100 µM; TGI (NCI-H522 lung): > 100 µM; TGI (HCT-116 colon): > 100 µM; TGI (K-562 leukemia): > 100 µM

**Q.** How did the TGI (OVCAR-8 ovarian) turn out when `FC(F)(F)c1nc(-c2ccccc2)oc1Sc1nnc(Sc2oc(-c3ccccc3)nc2C(F)(F)F)s1` was run?
**A.** 59.8 µM

**Q.** And the TGI (SNB-78 CNS)?
**A.** > 74 µM

**Q.** And the TGI (786-0 renal)?
**A.** 74 µM

**Q.** What about the TGI (SNB-19 CNS) of the same compound?
**A.** > 100 µM

**Q.** And the TGI (CAKI-1 renal)?
**A.** > 78.7 µM

**Q.** And the TGI (RXF-631 renal)?
**A.** > 84.1 µM

**Q.** What about the TGI (SF-295 CNS) of the same compound?
**A.** > 100 µM

**Q.** And the TGI (IGROV1 ovarian)?
**A.** 49.3 µM

**Q.** And the TGI (CCRF-CEM leukemia)?
**A.** 34.8 µM

**Q.** And the TGI (DMS 273 small cell lung)?
**A.** > 100 µM

**Q.** What about the TGI (COLO 205 colon) of the same compound?
**A.** > 69.8 µM

**Q.** And the TGI (NCI-H23 lung)?
**A.** 67.3 µM

**Q.** And the TGI (OVCAR-4 ovarian)?
**A.** 28 µM

**Q.** What about the TGI (DMS 114 small cell lung) of the same compound?
**A.** 21.7 µM

**Q.** And the TGI (UACC-257 melanoma)?
**A.** > 100 µM

**Q.** What about the TGI (SK-MEL-5 melanoma) of the same compound?
**A.** 33.9 µM

**Q.** And the TGI (U251 CNS)?
**A.** > 57.2 µM

**Q.** And the TGI (KM12 colon)?
**A.** > 100 µM

**Q.** And the TGI (XF 498 CNS)?
**A.** 26.7 µM

**Q.** And the TGI (UACC-62 melanoma)?
**A.** > 65.8 µM

**Q.** And the TGI (HT29 colon)?
**A.** > 100 µM

**Q.** What about the TGI (SR leukemia) of the same compound?
**A.** 41 µM

**Q.** And the TGI (SK-MEL-2 melanoma)?
**A.** > 100 µM

**Q.** And the TGI (SNB-75 CNS)?
**A.** > 100 µM

**Q.** And the TGI (NCI-H460 lung)?
**A.** > 100 µM

**Q.** And the TGI (OVCAR-3 ovarian)?
**A.** > 57.7 µM

**Q.** And the TGI (OVCAR-5 ovarian)?
**A.** > 100 µM

**Q.** What about the TGI (RPMI-8226 leukemia) of the same compound?
**A.** > 74.6 µM

**Q.** What about the TGI (HCC-2998 colon) of the same compound?
**A.** > 100 µM

**Q.** And the TGI (HCT-15 colon)?
**A.** > 59 µM

**Q.** What about the TGI (HL-60(TB) leukemia) of the same compound?
**A.** 19.7 µM

**Q.** What about the TGI (SN12C renal) of the same compound?
**A.** > 100 µM

**Q.** What about the TGI (ACHN renal) of the same compound?
**A.** > 100 µM

**Q.** And the TGI (UO-31 renal)?
**A.** > 100 µM

**Q.** And the TGI (DLD-1 colon)?
**A.** > 100 µM

**Q.** And the TGI (SK-MEL-28 melanoma)?
**A.** > 93.8 µM

**Q.** What about the TGI (SF-539 CNS) of the same compound?
**A.** > 100 µM

**Q.** What about the TGI (A549 NSCLC) of the same compound?
**A.** > 100 µM

**Q.** What about the TGI (M14 melanoma) of the same compound?
**A.** 28 µM

**Q.** And the TGI (EKVX NSCLC)?
**A.** > 80.7 µM

**Q.** What about the TGI (HOP-62 NSCLC) of the same compound?
**A.** > 100 µM

**Q.** What about the TGI (A498 renal) of the same compound?
**A.** > 100 µM

**Q.** And the TGI (TK-10 renal)?
**A.** > 100 µM

**Q.** And the TGI (SW-620 colon)?
**A.** > 100 µM

**Q.** What about the TGI (MALME-3M melanoma) of the same compound?
**A.** 34.4 µM

**Q.** What about the TGI (SF-268 CNS) of the same compound?
**A.** > 100 µM

**Q.** What about the TGI (LXFL 529 NSCLC) of the same compound?
**A.** > 64.6 µM

**Q.** What about the TGI (M19-MEL melanoma) of the same compound?
**A.** > 57.8 µM

**Q.** What about the TGI (SK-OV-3 ovarian) of the same compound?
**A.** > 100 µM

**Q.** What about the TGI (MOLT-4 leukemia) of the same compound?
**A.** 17 µM

**Q.** And the TGI (HOP-18 NSCLC)?
**A.** > 100 µM

**Q.** And the TGI (HOP-92 NSCLC)?
**A.** 63.4 µM

**Q.** And the TGI (RXF 393 renal)?
**A.** 49.3 µM

**Q.** And the TGI (KM20L2 colon)?
**A.** > 100 µM

**Q.** And the TGI (LOX IMVI melanoma)?
**A.** 24.9 µM

**Q.** What about the TGI (NCI-H522 lung) of the same compound?
**A.** 36.8 µM

**Q.** And the TGI (HCT-116 colon)?
**A.** > 100 µM

**Q.** What about the TGI (K-562 leukemia) of the same compound?
**A.** > 64.5 µM
